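Grown in 96-well plates, cells were treated for 48 hours with each compound at five concentrations. Insufficient inhibition: endpoint recorded as highest concentration tested. At the GI50, growth is halved. At the TGI there is no net growth.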
Tests used:
Test in all cases: growth of human tumour cells (NCI), 48 h
RPMI-8226 leukemia = tested on: RPMI-8226 leukemia
UO-31 renal = tested on: UO-31 renal
HOP-62 NSCLC = tested on: HOP-62 NSCLC
KM12 colon = tested on: KM12 colon
SNB-75 CNS = tested on: SNB-75 CNS
PC-3 prostate = tested on: PC-3 prostate
A498 renal = tested on: A498 renal
LOX IMVI melanoma = tested on: LOX IMVI melanoma
CCRF-CEM leukemia = tested on: CCRF-CEM leukemia
CAKI-1 renal = tested on: CAKI-1 renal
DU-145 prostate = tested on: DU-145 prostate
HS 578T breast = tested on: HS 578T breast
IGROV1 ovarian = tested on: IGROV1 ovarian
SW-620 colon = tested on: SW-620 colon
SF-295 CNS = tested on: SF-295 CNS
NCI-H522 lung = tested on: NCI-H522 lung
BT-549 breast = tested on: BT-549 breast
SK-MEL-5 melanoma = tested on: SK-MEL-5 melanoma
OVCAR-5 ovarian = tested on: OVCAR-5 ovarian
SNB-19 CNS = tested on: SNB-19 CNS
NCI-H226 lung = tested on: NCI-H226 lung
HL-60(TB) leukemia = tested on: HL-60(TB) leukemia
T-47D breast = tested on: T-47D breast
HOP-92 NSCLC = tested on: HOP-92 NSCLC
HCC-2998 colon = tested on: HCC-2998 colon
HCT-116 colon = tested on: HCT-116 colon
OVCAR-4 ovarian = tested on: OVCAR-4 ovarian
UACC-257 melanoma = tested on: UACC-257 melanoma
MOLT-4 leukemia = tested on: MOLT-4 leukemia

CCOc1ccc(NC2=C(Cl)C(=O)c3nc(C)ccc3C2=O)cc1
GI50 (RPMI-8226 leukemia): 1.67 µM | TGI (RPMI-8226 leukemia): 5.33 µM | GI50 (UO-31 renal): 1.43 µM | TGI (UO-31 renal): 2.75 µM | GI50 (HOP-62 NSCLC): 1.74 µM | TGI (HOP-62 NSCLC): 3.23 µM | GI50 (KM12 colon): 1.44 µM | TGI (KM12 colon): 3.07 µM | GI50 (SNB-75 CNS): 1.46 µM | TGI (SNB-75 CNS): 2.79 µM | GI50 (PC-3 prostate): 1.3 µM | TGI (PC-3 prostate): 2.77 µM | GI50 (A498 renal): 1.56 µM | TGI (A498 renal): 5.52 µM | GI50 (LOX IMVI melanoma): 1.06 µM | TGI (LOX IMVI melanoma): 2.33 µM | GI50 (CCRF-CEM leukemia): 2.11 µM | TGI (CCRF-CEM leukemia): > 100 µM | GI50 (CAKI-1 renal): 1.6 µM | TGI (CAKI-1 renal): 2.97 µM | GI50 (DU-145 prostate): 1.72 µM | TGI (DU-145 prostate): 3.13 µM | GI50 (HS 578T breast): 2.22 µM | TGI (HS 578T breast): 5.82 µM | GI50 (IGROV1 ovarian): 1.36 µM | TGI (IGROV1 ovarian): 2.76 µM | GI50 (SW-620 colon): 1.83 µM | TGI (SW-620 colon): 3.51 µM | GI50 (SF-295 CNS): 1.86 µM | TGI (SF-295 CNS): 3.43 µM | GI50 (NCI-H522 lung): 1.75 µM | TGI (NCI-H522 lung): 3.22 µM | GI50 (BT-549 breast): 1.43 µM | TGI (BT-549 breast): 2.8 µM | GI50 (SK-MEL-5 melanoma): 1.72 µM | TGI (SK-MEL-5 melanoma): 3.11 µM | GI50 (OVCAR-5 ovarian): 1.92 µM | TGI (OVCAR-5 ovarian): 3.46 µM | GI50 (SNB-19 CNS): 1.68 µM | TGI (SNB-19 CNS): 3.16 µM | GI50 (NCI-H226 lung): 1.84 µM | TGI (NCI-H226 lung): 4.52 µM | GI50 (HL-60(TB) leukemia): 1.47 µM | TGI (HL-60(TB) leukemia): 4.18 µM | GI50 (T-47D breast): 1.01 µM | TGI (T-47D breast): 3.91 µM | GI50 (HOP-92 NSCLC): 2.02 µM | TGI (HOP-92 NSCLC): 3.51 µM | GI50 (HCC-2998 colon): 1.76 µM | TGI (HCC-2998 colon): 3.25 µM | GI50 (HCT-116 colon): 1.32 µM | TGI (HCT-116 colon): 2.79 µM | GI50 (OVCAR-4 ovarian): 1.13 µM | TGI (OVCAR-4 ovarian): 2.37 µM | GI50 (UACC-257 melanoma): 1.39 µM | TGI (UACC-257 melanoma): 2.78 µM | GI50 (MOLT-4 leukemia): 2.49 µM
